# Laboratory results taken from patent publication US6344344B1, “Method for producing uridine-5'-monophosphate by fermentation using mutant strains of coryneform bacteria” (Ajinomoto Co., Inc., priority 1999, dated 2002).
# Where two headings read alike, the source gives them in different places.
# Experiments:
# Assay type in all cases: cell-based
# [1] = test system: Corynebacterium ammoniagenes ATCC 6872; experiment: Growth of the strain in the presence of pyrimidine analogues; settings: basal agar medium A
# [2] = test system: Corynebacterium ammoniagenes VKPM B-6307; settings: for Growth of the strains B-6307: basal agar medium A; for Growth of the strain VKPM B-6307 With addition (medium B): medium B (guanine, arginine, casamino acid added)
# [3] = test system: Corynebacterium ammoniagenes LK 40-2 (VKPM B-7811); experiment: Growth of the strain in the presence of pyrimidine analogues
# Description: Corynebacterium ammoniagenes VKPM B-6307 was treated with 50 μg/ml of NTG for 20 minutes followed by ampicillin-enrichment procedure for obtaining mutants which could not utilize uridine effectively as a sole carbon source (uridine was added into liquid medium A of Table 2 instead of glucose). The obtained mutant cells were plated on a medium B of Table 2 supplemented with guanine (100 μg/ml), arginine (500 μg/ml), casamino acids (200 μg/ml) and 100 μg/ml of 5-fluorouridine.
# The inoculated plates were incubated at 30° C. for 3 days.
# The extent of resistance to various pyrimidine analogues of this strain as well as that of the parent strain VKPM B-6307 is shown in Table 4.
# (§1) Extent of resistance of this strain to various pyrimidine analogues as well as that of the parent strains LK 40-2 and LK 75-15 is shown in Table 11.
# [4] = test system: Corynebacterium ammoniagenes LK 75-15 (VKPM B-7812); experiment: as above
# Source text: as §1
# [5] = test system: Corynebacterium ammoniagenes LK 75-66 (VKPM B-7813); experiment: as above
# Source text: as §1
# [6] = test system: Corynebacterium ammoniagenes LK 75-15 (VKPM B-7812); experiment: as above; remark: listed apart in the source
# [7] = medium B with 100 μg/ml analogue, 30° C., 3 days
compound,measurement,setting,value
O=c1cc[nH]c(=S)[nH]1 [2-Thiouracil],Growth of the strains ATCC6872,[1]; analogue 500 μg/ml,−
same,Growth of the strains ATCC6872,[1]; analogue 1000 μg/ml,−
same,Growth of the strains ATCC6872,[1]; analogue 3000 μg/ml,−
same,Growth of the strains ATCC6872,[1]; analogue 5000 μg/ml,−
same,Growth of the strain B-6307,"[2]; Table 4, analogue 1000 μg/ml",−
same,Growth of the strain B-6307,"[2]; Table 8, analogue 1000 μg/ml",−
same,Growth of the strains B-6307,[2]; analogue 500 μg/ml,+
same,Growth of the strains B-6307,[2]; analogue 1000 μg/ml,+
same,Growth of the strains B-6307,[2]; analogue 3000 μg/ml,+
same,Growth of the strains B-6307,[2]; analogue 5000 μg/ml,+
same,Growth of the strain LK 40-2,"[3]; Table 4, analogue 1000 μg/ml",+
same,Growth of the strain LK 40-2,"[3]; Table 11, analogue 1000 μg/ml",+
same,Growth of the Strain LK 75-15,"[4]; Table 11, analogue 1000 μg/ml",+
same,Growth of the Strain LK 75-66,"[5]; Table 11, analogue 1000 μg/ml",+
same,Growth of the Strain LK 75-15,"[6]; Table 8, analogue 1000 μg/ml",+
O=c1[nH]cc(F)c(=O)[nH]1 [5-Fluorouracil],Growth of the strains ATCC6872,[1]; analogue 50 μg/ml,−
same,Growth of the strains ATCC6872,[1]; analogue 100 μg/ml,−
same,Growth of the strains ATCC6872,[1]; analogue 200 μg/ml,−
same,Growth of the strains ATCC6872,[1]; analogue 600 μg/ml,−
same,Growth of the strain B-6307,"[2]; Table 4, analogue 100 μg/ml",−
same,Growth of the strain B-6307,"[2]; Table 4, analogue 300 μg/ml",−
same,Growth of the strain B-6307,"[2]; Table 4, analogue 500 μg/ml",−
same,Growth of the strain B-6307,"[2]; Table 4, analogue 1000 μg/ml",−
same,Growth of the strain B-6307,"[2]; Table 8, analogue 100 μg/ml",−
same,Growth of the strain B-6307,"[2]; Table 8, analogue 300 μg/ml",−
same,Growth of the strain B-6307,"[2]; Table 8, analogue 500 μg/ml",−
same,Growth of the strain B-6307,"[2]; Table 8, analogue 1000 μg/ml",−
same,Growth of the strains B-6307,[2]; analogue 50 μg/ml,+
same,Growth of the strains B-6307,[2]; analogue 100 μg/ml,+
same,Growth of the strain VKPM B-6307 No addition (medium A),[2]; analogue 100 μg/ml,+
same,Growth of the strain VKPM B-6307 With addition (medium B),[2]; analogue 100 μg/ml,−
same,Growth of the strains B-6307,[2]; analogue 200 μg/ml,+
same,Growth of the strain VKPM B-6307 No addition (medium A),[2]; analogue 200 μg/ml,+
same,Growth of the strain VKPM B-6307 With addition (medium B),[2]; analogue 200 μg/ml,−
same,Growth of the strain VKPM B-6307 No addition (medium A),[2]; analogue 500 μg/ml,+
same,Growth of the strain VKPM B-6307 With addition (medium B),[2]; analogue 500 μg/ml,−
same,Growth of the strains B-6307,[2]; analogue 600 μg/ml,+
same,Growth of the strain VKPM B-6307 No addition (medium A),[2]; analogue 1000 μg/ml,+
same,Growth of the strain VKPM B-6307 With addition (medium B),[2]; analogue 1000 μg/ml,−
same,Growth of the strain LK 40-2,"[3]; Table 4, analogue 100 μg/ml",+
same,Growth of the strain LK 40-2,"[3]; Table 4, analogue 300 μg/ml",+
same,Growth of the strain LK 40-2,"[3]; Table 4, analogue 500 μg/ml",+
same,Growth of the strain LK 40-2,"[3]; Table 4, analogue 1000 μg/ml",+
same,Growth of the strain LK 40-2,"[3]; Table 11, analogue 100 μg/ml",+
same,Growth of the strain LK 40-2,"[3]; Table 11, analogue 300 μg/ml",+
same,Growth of the strain LK 40-2,"[3]; Table 11, analogue 500 μg/ml",+
same,Growth of the strain LK 40-2,"[3]; Table 11, analogue 1000 μg/ml",+
same,Growth of the Strain LK 75-15,"[4]; Table 11, analogue 100 μg/ml",+
same,Growth of the Strain LK 75-15,"[4]; Table 11, analogue 300 μg/ml",−
same,Growth of the Strain LK 75-15,"[4]; Table 11, analogue 500 μg/ml",−
same,Growth of the Strain LK 75-15,"[4]; Table 11, analogue 1000 μg/ml",−
same,Growth of the Strain LK 75-66,"[5]; Table 11, analogue 100 μg/ml",+
same,Growth of the Strain LK 75-66,"[5]; Table 11, analogue 300 μg/ml",+
same,Growth of the Strain LK 75-66,"[5]; Table 11, analogue 500 μg/ml",−
same,Growth of the Strain LK 75-66,"[5]; Table 11, analogue 1000 μg/ml",−
same,Growth of the Strain LK 75-15,"[6]; Table 8, analogue 100 μg/ml",+
same,Growth of the Strain LK 75-15,"[6]; Table 8, analogue 300 μg/ml",−
same,Growth of the Strain LK 75-15,"[6]; Table 8, analogue 500 μg/ml",−
same,Growth of the Strain LK 75-15,"[6]; Table 8, analogue 1000 μg/ml",−
O=c1[nH]c(=O)n([C@@H]2O[C@H](CO)[C@@H](O)[C@H]2O)cc1F [5-Fluouridine],Growth of the strains ATCC6872,[1]; analogue 100 μg/ml,−
same,Growth of the strains ATCC6872,[1]; analogue 200 μg/ml,−
same,Growth of the strains ATCC6872,[1]; analogue 400 μg/ml,−
same,Growth of the strains ATCC6872,[1]; analogue 600 μg/ml,−
same,Growth of the strain B-6307,"[2]; Table 4, analogue 100 μg/ml",−
same,Growth of the strain B-6307,"[2]; Table 4, analogue 300 μg/ml",−
same,Growth of the strain B-6307,"[2]; Table 4, analogue 500 μg/ml",−
same,Growth of the strain B-6307,"[2]; Table 4, analogue 1000 μg/ml",−
same,Growth of the strain B-6307,"[2]; Table 8, analogue 100 μg/ml",−
same,Growth of the strain B-6307,"[2]; Table 8, analogue 300 μg/ml",−
same,Growth of the strain B-6307,"[2]; Table 8, analogue 500 μg/ml",−
same,Growth of the strain B-6307,"[2]; Table 8, analogue 1000 μg/ml",−
same,Growth of the strains B-6307,[2]; analogue 100 μg/ml,+
same,Growth of the strain VKPM B-6307 No addition (medium A),[2]; analogue 100 μg/ml,+
same,Growth of the strain VKPM B-6307 With addition (medium B),[2]; analogue 100 μg/ml,−
same,Growth of the strains B-6307,[2]; analogue 200 μg/ml,+
same,Growth of the strain VKPM B-6307 No addition (medium A),[2]; analogue 200 μg/ml,+
same,Growth of the strain VKPM B-6307 With addition (medium B),[2]; analogue 200 μg/ml,−
same,Growth of the strains B-6307,[2]; analogue 400 μg/ml,+
same,Growth of the strain VKPM B-6307 No addition (medium A),[2]; analogue 500 μg/ml,+
same,Growth of the strain VKPM B-6307 With addition (medium B),[2]; analogue 500 μg/ml,−
same,Growth of the strains B-6307,[2]; analogue 600 μg/ml,+
same,Growth of the strain VKPM B-6307 No addition (medium A),[2]; analogue 1000 μg/ml,+
same,Growth of the strain VKPM B-6307 With addition (medium B),[2]; analogue 1000 μg/ml,−
same,growth of the parent strain on supplemented medium,[2]; [7],could not grow
same,Growth of the strain LK 40-2,"[3]; Table 4, analogue 100 μg/ml",+
same,Growth of the strain LK 40-2,"[3]; Table 4, analogue 300 μg/ml",+
same,Growth of the strain LK 40-2,"[3]; Table 4, analogue 500 μg/ml",+
same,Growth of the strain LK 40-2,"[3]; Table 4, analogue 1000 μg/ml",+
same,Growth of the strain LK 40-2,"[3]; Table 11, analogue 100 μg/ml",+
same,Growth of the strain LK 40-2,"[3]; Table 11, analogue 300 μg/ml",+
same,Growth of the strain LK 40-2,"[3]; Table 11, analogue 500 μg/ml",+
same,Growth of the strain LK 40-2,"[3]; Table 11, analogue 1000 μg/ml",+
same,growth of strain LK 40-2 on supplemented medium,[3]; [7],capable of growing
same,Growth of the Strain LK 75-15,"[4]; Table 11, analogue 100 μg/ml",+
same,Growth of the Strain LK 75-15,"[4]; Table 11, analogue 1000 μg/ml",−
same,Growth of the Strain LK 75-66,"[5]; Table 11, analogue 100 μg/ml",+
same,Growth of the Strain LK 75-66,"[5]; Table 11, analogue 300 μg/ml",+
same,Growth of the Strain LK 75-66,"[5]; Table 11, analogue 500 μg/ml",+
same,Growth of the Strain LK 75-66,"[5]; Table 11, analogue 1000 μg/ml",−
same,Growth of the Strain LK 75-15,"[6]; Table 8, analogue 100 μg/ml",+
same,Growth of the Strain LK 75-15,"[6]; Table 8, analogue 300 μg/ml",+
same,Growth of the Strain LK 75-15,"[6]; Table 8, analogue 500 μg/ml",−
same,Growth of the Strain LK 75-15,"[6]; Table 8, analogue 1000 μg/ml",−
same,Growth of the Strain LK 75-15,"[6]; Table 11, analogue 300 μg/ml",+
same,Growth of the Strain LK 75-15,"[6]; Table 11, analogue 500 μg/ml",−
O=c1cn[nH]c(=O)[nH]1 [6-Azauracil],Growth of the strains ATCC6872,[1]; analogue 500 μg/ml,−
same,Growth of the strains ATCC6872,[1]; analogue 1000 μg/ml,−
same,Growth of the strains ATCC6872,[1]; analogue 3000 μg/ml,−
same,Growth of the strains ATCC6872,[1]; analogue 5000 μg/ml,−
same,Growth of the strain B-6307,"[2]; Table 4, analogue 1000 μg/ml",−
same,Growth of the strain B-6307,"[2]; Table 8, analogue 1000 μg/ml",−
same,Growth of the strains B-6307,[2]; analogue 500 μg/ml,+
same,Growth of the strains B-6307,[2]; analogue 1000 μg/ml,+
same,Growth of the strains B-6307,[2]; analogue 3000 μg/ml,+
same,Growth of the strains B-6307,[2]; analogue 5000 μg/ml,+
same,Growth of the strain LK 40-2,"[3]; Table 4, analogue 1000 μg/ml",+
same,Growth of the strain LK 40-2,"[3]; Table 11, analogue 1000 μg/ml",+
same,Growth of the Strain LK 75-15,"[4]; Table 11, analogue 1000 μg/ml",+
same,Growth of the Strain LK 75-66,"[5]; Table 11, analogue 1000 μg/ml",+
same,Growth of the Strain LK 75-15,"[6]; Table 8, analogue 1000 μg/ml",+
